The source of these data is patent publication US10392383B2, “3-(1H-benzo[d]imidazol-2-yl)-1H-pyrazolo[4,3-b]pyridines and therapeutic uses thereof” (Samumed, LLC, priority 2015, dated 2019).

What all share (assay type): cell-based
For one experiment, the system named is SW480 colon cancer cells. The experiment can be described thus: Cell viability assay (CellTiter-Blue) in SW480 cells. As to conditions: Homo sapiens, 96 h, four days; for EC50: CellTiter-Blue, 10 μM to 0.0045 μM; for inhibition at 10 µM: read-out: percent inhibition at 10 μM (given for EC50 of >10 μM). The protocol: Representative compounds were screened using the following assay procedure to assess the effect on cell viability as described below.
Each compound was dissolved in DMSO as a 10 mM stock and used to prepare compound source plates. Serial dilution (1:3, 8-point dose-response curves from 10 μM to 0.0045 μM) and compound transfer was performed using the ECHO 550 (Labcyte, Sunnyvale, Calif.) into 96-well clear bottom, black-walled plates (Corning-Costar).
Approximately 2×10^3 SW480 colon cancer cells were seeded into each well and allowed to incubate in the presence or absence of compound for four days at 37° C./5% CO2. Eight replicates of DMSO-treated cells served as controls and cells treated with compound were performed in duplicate.
After incubation, 20 μL of CellTiter-Blue (Promega) was added to each well allowed to incubate for approximately 3 hours. This reagent was a buffered solution which contains resazurin, metabolically active cells were able to reduce rezarurin (blue) into resorufin (pink) which was highly fluorescent. This measured fluorescence was used as a readout for cell viability.
After incubation, the plates were read at Ex 560 nm Em 590 nm (Cytation 3, BioTek). Dose-response curves were generated and EC50 concentration values were calculated using non-linear regression curve fit in the GraphPad Prism (San Diego, Calif.) or Dotmatics' Studies Software (Bishops Stortford, UK). For EC50 of >10 μM, the percent inhibition at 10 μM is provided.
For orientation: The colour change of resazurin is a common sign of viable cells or microbes.

The test system of experiment [1] is Wnt activity (Sp5-Luc reporter, Wnt-responsive promoter) in SW480 colon carcinoma cells. The experiment can be described thus: Wnt activity screening assay: Sp5-Luc reporter gene assay in SW480 cells. As to conditions: Homo sapiens; for EC50: overnight incubation, 10-point curve starting from 10 μM; for inhibition at 10 µM: read-out: percent inhibition at 10 μM (given for EC50 of >10 μM). An excerpt: The screening assay for Wnt activity is described as follows. Reporter cell lines can be generated by stably transducing cancer cell lines (e.g., colon cancer) or primary cells (e.g., IEC-6 intestinal cells) with a lentiviral construct that includes a Wnt-responsive promoter driving expression of the firefly luciferase gene.
SW480 colon carcinoma cells were transduced with a lentiviral vector expressing luciferase with a human Sp5 promoter consisting of a sequence of eight TCF/LEF binding sites. SW480 cells stably expressing the Sp5-Luc reporter gene and a hygromycin resistance gene were selected by treatment with 150 μg/mL of hygromycin for 7 days. These stably transduced SW480 cells were expanded in cell culture and used for all further screening activities. Each compound was dissolved in DMSO as a 10 mM stock and used to prepare compound source plates. Serial dilution (1:3, 10-point dose-response curves starting from 10 μM) and compound transfer was performed using the ECHO 550 (Labcyte, Sunnyvale, Calif.) into 384-well white solid bottom assay plates (Greiner Bio-One) with appropriate DMSO backfill for a final DMSO concentration of 0.1%. For Sp5-Luc reporter gene assays, the cells were plated at 4,000 cells/well in 384-well plates with medium containing 1% fetal bovine serum and incubated overnight at 37° C. and 5% CO2. Following incubation, 20 μl of BrightGlo luminescence reagent (Promega) was added to each well of the 384-well assay plates. The plates were placed on an orbital shaker for 2 min and then luminescence was quantified using the Envision (Perkin Elmer) plate reader. Readings were normalized to DMSO only treated cells, and normalized activities were utilized for EC50 calculations using the dose-response log (inhibitor) vs. response-variable slope (four parameters) nonlinear regression feature available in GraphPad Prism 5.0 (or Dotmatics). For EC50 of >10 μM, the percent inhibition at 10 μM is provided.
For orientation: In a reporter assay the amount or activity of a reporter protein is the signal.

In experiment [2] the test system is primary human fibroblasts derived from IPF patients (LL29 cells) treated with TGF-β1. The experiment is described as follows: Inhibition of the fibrotic process: αSMA staining in TGF-β1-treated LL29 fibroblasts. To be noted: Fibroblast; for EC50: 96 h, LL29 fibroblasts treated with TGF-β1 (20 ng/mL), 4 days, Table 4. An excerpt: Representative compounds were screened using primary human fibroblasts (derived from IPF patients) treated with TGF-β1 to determine their ability to inhibit the fibrotic process.
Human Fibroblast Cell Culture: Primary human fibroblasts derived from IPF patients (LL29 cells) [^1Xiaoqiu Liu, et. al., “Fibrotic Lung Fibroblasts Show Blunted Inhibition by cAMP Due to Deficient cAMP Response Element-Binding Protein Phosphorylation”, Journal of Pharmacology and Experimental Therapeutics (2005), 315(2), 678-687; ^2Watts, K. L., et. al., “RhoA signaling modulates cyclin D1 expression in human lung fibroblasts; implications for idiopathic pulmonary fibrosis”, Respiratory Research (2006), 7(1), 88] were obtained from American Type Culture Collection (ATCC) and expanded in F12 medium supplemented with 15% Fetal Bovine Serum and Penicillin/Streptomycin.
Compound Screening: Each compound was dissolved in DMSO as a 10 mM stock and used to prepare compound source plates. Serial dilution (1:2, 11-point dose-response curves from 10 μM to […]) and compound transfer was performed using the ECHO 550 (Labcyte, Sunnyvale, Calif.) into 384-well clear bottom assay plates (Greiner Bio-One) with appropriate DMSO backfill for a final DMSO concentration of 0.1%. LL29 cells are plated at 1,500 cells/well in 80 μL/well F12 medium supplemented with 1% Fetal Bovine Serum. One hour after addition of the cells, TGF-β1 (Peprotech; 20 ng/mL) was added to the plates to induce fibrosis (ref. 1 and 2 above). Wells treated with TGF-β1 and containing DMSO were used as controls. Cells were incubated at 37° C. and 5% CO2 for 4 days. Following incubation for 4 days, SYTOX green nucleic acid stain (Life Technologies [Thermo Fisher Scientific]) was added to the wells at a final concentration of 1 μM and incubated at room temperature for 30 min. Cells were then fixed using 4% formaldehyde (Electron Microscopy Sciences), washed 3 times with PBS followed by blocking and permeabilization using 3% Bovine Serum Albumin (BSA; Sigma) and 0.3% Triton X-100 (Sigma) in PBS. Cells were then stained with antibody specific to α-smooth muscle actin (αSMA; Abcam) (ref. 1 and 2 above) in 3% Bovine Serum Albumin (BSA; Sigma) and 0.3% Triton X-100 (Sigma) in PBS, and incubated overnight at 4° C. Cells were then washed 3 times with PBS, followed by incubation with Alexa Flor-647 conjugated secondary antibody (Life Technologies [Thermo Fisher Scientific]) and DAPI at room temperature for 1 hour. Cells were then washed 3 times with PBS and plates were sealed for imaging. αSMA staining was imaged by excitation at 630 nm and emission at 665 nm and quantified using the Compartmental Analysis program on the CellInsight CX5 (Thermo Scientific). Dead or apoptotic cells were excluded from analysis based on positive SYTOX green staining. % of total cells positive for αSMA were counted in each well and normalized to the average of 11 wells treated with TGF-β1 on the same plate using Dotmatics' Studies Software. The normalized averages (fold change over untreated) of 3 replicate wells for each compound concentration were used to create dose-responses curves and EC50 values were calculated using non-linear regression curve fit in the Dotmatics' Studies Software. For EC50 of >10 μM, the percent inhibition at 10 μM is provided.

As a reminder, the EC50 is the midpoint of the concentration-response curve. Lower therefore signals an effect from little substance. On to `COc1cccc(-c2cccc3[nH]c(-c4n[nH]c5ccc(-c6cncc(NC(=O)Cc7ccccc7)c6)nc45)nc23)c1` [Compound 1000, N-(5-(3-(4-(3-Methoxyphenyl)-1H-benzo[d]imidazol-2-yl)-1H-pyrazolo[4,3-b]pyridin-5-yl)pyridin-3-yl)-2-phenylacetamide], for which the values for the EC50 (in the experiment on SW480 colon cancer cells; in experiment [1]; in experiment [2]) were 4.13 µM, 3.25 µM and 2.27 µM, respectively.
A word on the inhibition: it is the percentage by which the read-out fell short of the control. On to `CCNCc1cncc(-c2ccc3[nH]nc(-c4nc5c(-c6ccccn6)cccc5[nH]4)c3n2)c1` [Compound 146, N-((5-(3-(4-(Pyridin-2-yl)-1H-benzo[d]imidazol-2-yl)-1H-pyrazolo[4,3-b]pyridin-5-yl)pyridin-3-yl)methyl)ethanamine], for which the EC50 in the experiment on SW480 colon cancer cells is 1.56 µM; in experiment [1], over 10 µM; in experiment [2] it was 3.68 µM. Also, the inhibition at 10 µM in experiment [1] came to 41.6%.
For `Fc1cccc(-c2cccc3[nH]c(-c4n[nH]c5ccc(-c6cn[nH]c6)nc45)nc23)c1` [Compound 507, 3-(4-(3-Fluorophenyl)-1H-benzo[d]imidazol-2-yl)-5-(1H-pyrazol-4-yl)-1H-pyrazolo[4,3-b]pyridine], in that order: 0.975 µM, over 10 µM, 2.98 µM and 36%.
Turning to `Fc1ccc(-c2cccc3[nH]c(-c4n[nH]c5ccc(-c6cncc(CN7CCCC7)c6)nc45)nc23)cc1` [Compound 42, 3-(4-(4-Fluorophenyl)-1H-benzo[d]imidazol-2-yl)-5-(5-(pyrrolidin-1-ylmethyl)pyridin-3-yl)-1H-pyrazolo[4,3-b]pyridine], the EC50 in the experiment on SW480 colon cancer cells came to 0.547 µM; in experiment [1], 1.08 µM; in experiment [2], 3.51 µM.
For `CC(C)C(=O)Nc1cncc(-c2ccc3[nH]nc(-c4nc5c(-c6ccccc6F)cccc5[nH]4)c3n2)c1` [Compound 65, N-(5-(3-(4-(2-fluorophenyl)-1H-benzo[d]imidazol-2-yl)-1H-pyrazolo[4,3-b]pyridin-5-yl)pyridin-3-yl)isobutyramide], the inhibition at 10 µM with SW480 colon cancer cells worked out at 16.1%. The EC50 in the experiment with SW480 colon cancer cells was over 10 µM; in experiment [1], 5.1 µM; in experiment [2], 4.97 µM.
In the case of `Fc1cccc(-c2cccc3[nH]c(-c4n[nH]c5ccc(C6=CCNCC6)nc45)nc23)c1` [Compound 506, 3-(4-(3-Fluorophenyl)-1H-benzo[d]imidazol-2-yl)-5-(1,2,3,6-tetrahydropyridin-4-yl)-1H-pyrazolo[4,3-b]pyridine], the figures for the EC50 (in the experiment on SW480 colon cancer cells; in experiment [1]; in experiment [2]) were 4.16 µM, over 10 µM and 1.6 µM, respectively. The inhibition at 10 µM in experiment [1] stood at 10%.
With `CN(C)c1cncc(-c2ccc3[nH]nc(-c4nc5c(N6CCCCC6)cccc5[nH]4)c3n2)c1` [Compound 175, N,N-dimethyl-5-(3-(4-(piperidin-1-yl)-1H-benzo[d]imidazol-2-yl)-1H-pyrazolo[4,3-b]pyridin-5-yl)pyridin-3-amine], the figures for the EC50 (with SW480 colon cancer cells; in experiment [1]; in experiment [2]) were 6.08 µM, 2.13 µM and 4.69 µM, respectively.
The corresponding values for `Clc1ccc(-c2cccc3[nH]c(-c4n[nH]c5ccc(-c6cncc(CN7CCCC7)c6)nc45)nc23)s1` [Compound 1049, 3-(4-(5-Chlorothiophen-2-yl)-1H-benzo[d]imidazol-2-yl)-5-(5-(pyrrolidin-1-ylmethyl)pyridin-3-yl)-1H-pyrazolo[4,3-b]pyridine] are 0.584 µM, 1.25 µM and 0.733 µM.
For `c1ccc2[nH]c(-c3n[nH]c4ccc(-c5cncc(OC6CCNCC6)c5)nc34)nc2c1` [Compound 656, 3-(1H-Benzo[d]imidazol-2-yl)-5-(5-(piperidin-4-yloxy)pyridin-3-yl)-1H-pyrazolo[4,3-b]pyridine], the inhibition at 10 µM worked out at 20.8% with SW480 colon cancer cells; 4.9% in experiment [1]; 45.9% in experiment [2] (10 μM, LL29 fibroblasts treated with TGF-β1, Table 4, read-out: percent inhibition at 10 μM (given in parentheses for EC50 >10 μM)). In addition, the EC50 (in the experiment with SW480 colon cancer cells; in experiment [1]; in experiment [2]) was over 10 µM throughout.
Turning to `COc1cccc(-c2cccc3[nH]c(-c4n[nH]c5ccc(-c6cccnc6)nc45)nc23)c1` [Compound 994, 3-(4-(3-Methoxyphenyl)-1H-benzo[d]imidazol-2-yl)-5-(pyridin-3-yl)-1H-pyrazolo[4,3-b]pyridine], the EC50 turned out to be 5.94 µM in the experiment on SW480 colon cancer cells, 4.61 µM in experiment [1] and 1.05 µM in experiment [2].
As to `CCCCC(=O)Nc1cncc(-c2ccc3[nH]nc(-c4nc5c(-c6ccccn6)cccc5[nH]4)c3n2)c1` [Compound 159, N-(5-(3-(4-(Pyridin-2-yl)-1H-benzo[d]imidazol-2-yl)-1H-pyrazolo[4,3-b]pyridin-5-yl)pyridin-3-yl)pentanamide], the inhibition at 10 µM with SW480 colon cancer cells came out at 11%; in experiment [1], 11.3%. For the same molecule, the EC50 is over 10 µM in the experiment on SW480 colon cancer cells, over 10 µM in experiment [1] and 0.948 µM in experiment [2].
For the molecule `O=C(Nc1cncc(-c2ccc3[nH]nc(-c4nc5c(-c6ccccc6F)cccc5[nH]4)c3n2)c1)C(F)(F)F` [Compound 1126, 2,2,2-Trifluoro-N-(5-(3-(4-(2-fluorophenyl)-1H-benzo[d]imidazol-2-yl)-1H-pyrazolo[4,3-b]pyridin-5-yl)pyridin-3-yl)acetamide], the figures for the EC50 (in the experiment on SW480 colon cancer cells; in experiment [1]; in experiment [2]) were 4.36 µM, 0.892 µM and 2.29 µM, respectively.
